# “Also recorded” adds a separate entry of the source.
# Tests used:
# NMDA receptor = details: subsequent study; cited from earlier work
# [1] = In vitro stability assay in mouse serum (UPLC-MS/MS); assay type: in vitro ADME; details: 3 μM, over the 360-min incubation period
# EphA4 = target: T1, EphA4 (Rattus norvegicus, UniProt D3ZZK3); assay: Ephrin-A1-induced EphA4 cluster assay in cultured hippocampal neurons; assay type: cell-based; details: cultured hippocampal neurons 3 DIV, different concentrations
# T1 construct: endogenous in cells; host or cells: primary rat cortical neurons (A5), primary rat hippocampal neurons (A7)
# Procedure: For EphA4 clustering, neurons were stained with anti-EphA4 and anti-Tau-1 antibodies. For the growth cone collapse assay, neurons were stained with Alexa Fluor 555-conjugated phalloidin (Molecular Probes) for filamentous actin and anti-Tau-1 antibody for axons. Collapsed growth cones were scored in a double-blinded manner. The experiments were repeated at least 3 times, and >50 neurons were analyzed for each experiment. Data are presented as mean±SEM.
# Rat hippocampal neurons were seeded on 48-well plates coated with poly-D-lysine (50 μg/mL) at 6000 cells per well. Neurons were incubated with Neurobasal medium (Invitrogen) supplemented with 2% B27 (Invitrogen). […] Neurons were then immunostained with anti-EphA4 and anti-Tau-1 antibodies. The cellular imaging and quantification of EphA4 clusters was performed using IN Cell Analyzer 6000 high content assay system (GE Healthcare). EphA4 clusters were quantified by calculating the proportion of total area of EphA4 clusters on axons against Tau positive area. Statistical analysis was performed with one-way ANOVA followed by Newman-Keuls Multiple Comparison Test (Prism 5 GraphPad Software).
# Tg2576 mutant mice = assay: HFS-induced hippocampal LTP in WT and Tg2576 mice after oral treatment; assay type: in vivo, mouse
# Source text: APP/PS1 double-transgenic mice were obtained from Jackson Laboratory (B6C3-Tg[APPswe, PSEN1dE9]85Dbo/J)^66. These mice were generated by incorporating a human/murine APP construct bearing the Swedish double mutation and the exon-9-deleted PSEN1 mutation (APPswe+PSEN1/dE9). APP transgenic mice (Tg2576) expressing a double mutant of human AβPP (Lys^670→Asn^670, Met^671→Leu^671) were also used^31. Both sexes were used for experiments, and all mice used in this study were produced by the Animal Care Facility of The Hong Kong University of Science and Technology. The genotype was confirmed by polymerase chain reaction analysis of tail biopsies. Four to five mice of the same sex were housed in a cage with food and water ad libitum with a 12-hour light/dark cycle.
# To investigate the effect of blocking EphA4 signaling by KYL peptide in AD mice, 4-5-month-old AD transgenic mice were implanted with Alzet mini-osmotic pumps, model 1004, pumping its contents at 0.11 μL/h for 28 days. Pumps were loaded with either 0.23 μg/μL KYL peptide (17 μg) or vehicle solvent in artificial cerebrospinal fluid (CSF). The mini-osmotic pumps were adjusted intracerebroventricularly in the right hemisphere. […]
# For LTP recordings, mouse brains were immediately dissected after sacrifice and soaked in ice-cold 95% O2/5% CO2 (aCSF)^58. […] For treatment with EphA4 inhibitors, the slices were pretreated with peptides or chemicals for 1 h before application of Aβ. fEPSPs were recorded using a MED64 multichannel recording system, and the data were collected from the dendritic layer of area CA1 at a sampling rate of 10 kHz. For each slice, the baseline stimulus intensity was set at the level that elicited ˜50% of the maximum fEPSP response determined according to the input-output curve. […] The magnitude of LTP was quantified as a percentage change in the fEPSP slope (10%-90%) taken during the 60-min interval after LTP induction.
# NMDA receptors = assay: NMDA current in hippocampal neurons; assay type: cell-based; details: data not shown
# T1 sequence (D3ZZK3 20-986): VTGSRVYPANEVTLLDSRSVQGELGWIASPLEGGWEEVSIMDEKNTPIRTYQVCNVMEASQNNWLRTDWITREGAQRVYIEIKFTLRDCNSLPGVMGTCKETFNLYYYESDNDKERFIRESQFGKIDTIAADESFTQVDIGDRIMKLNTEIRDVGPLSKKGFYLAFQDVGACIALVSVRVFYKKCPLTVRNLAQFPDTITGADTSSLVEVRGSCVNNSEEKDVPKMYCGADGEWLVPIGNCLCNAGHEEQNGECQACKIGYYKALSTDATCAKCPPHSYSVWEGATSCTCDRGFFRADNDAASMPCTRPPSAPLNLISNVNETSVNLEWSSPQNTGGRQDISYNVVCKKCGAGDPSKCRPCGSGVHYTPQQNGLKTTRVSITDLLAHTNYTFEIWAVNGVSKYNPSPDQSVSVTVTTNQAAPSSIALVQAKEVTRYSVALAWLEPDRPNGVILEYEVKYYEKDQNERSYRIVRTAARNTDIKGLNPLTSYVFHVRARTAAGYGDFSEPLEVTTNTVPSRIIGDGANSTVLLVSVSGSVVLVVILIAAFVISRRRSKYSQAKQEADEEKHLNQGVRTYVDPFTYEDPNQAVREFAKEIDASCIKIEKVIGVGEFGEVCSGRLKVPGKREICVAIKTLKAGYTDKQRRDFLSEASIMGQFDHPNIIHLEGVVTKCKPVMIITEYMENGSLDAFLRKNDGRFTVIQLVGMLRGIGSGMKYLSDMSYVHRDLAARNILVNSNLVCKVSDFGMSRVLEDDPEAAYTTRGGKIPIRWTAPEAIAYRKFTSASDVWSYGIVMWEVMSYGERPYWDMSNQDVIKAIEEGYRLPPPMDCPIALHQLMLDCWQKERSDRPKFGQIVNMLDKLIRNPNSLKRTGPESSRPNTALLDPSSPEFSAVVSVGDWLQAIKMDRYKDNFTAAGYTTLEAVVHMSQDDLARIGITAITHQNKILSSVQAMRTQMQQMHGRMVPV
smiles,measurement,setting,value
"CC[C@H]1CN2CC[C@]3(C(=O)Nc4ccccc43)[C@@H]2C[C@@H]1/C(=C\OC)C(=O)OC [Rhy, methyl (7β,16E,20α)-16-(methoxymethylene)-2-oxocorynoxan-17-oate]",binding to NMDA receptor,NMDA receptor,neither binds to NMDA receptor
same,reduction of Rhy concentration in serum,[1],~20%
same,ephrin-A1-induced EphA4 clustering,EphA4,reduced the ephrin-A1-induced EphA4 clustering; also recorded: abolished ephrin-A1-induced EphA4 clustering
same,"mean fEPSP slope, last 10 min after LTP induction","Tg2576 mutant mice; Tg2576 mice, Rhy oral 20 mg·kg−1·day−1 for 3 weeks, Tg Con 119.0±3.7%",161.9±2.9%
same,"mean fEPSP slope, last 10 min after LTP induction","Tg2576 mutant mice; Tg2576 mice, Rhy oral 50 mg·kg−1·day−1 for 3 weeks, Tg Con 119.0±3.7%",159.7±17.9%
same,"mean fEPSP slope, last 10 min after LTP induction","Tg2576 mutant mice; WT mice, Rhy oral 20 mg·kg−1·day−1 for 3 weeks, WT Con 170.1±9.7%",167.3±5.2%
same,inhibition of NMDA current in hippocampal neurons,NMDA receptors,unable to inhibit NMDA current
